Legend:
Assay type in all cases: cell-based
[1] = target: T1, maxi-K channel (alpha and beta1 subunits) in stably transfected HEK-293 cells (Homo sapiens, UniProt Q12791); assay: FRET membrane potential assay (VIPR), HEK-293 cells stably transfected with alpha and beta1 subunits of the maxi-K channel
T1 construct: expressed in transfected cells
Description: Transfection of the alpha and beta1 subunits of the maxi-K channel in HEK-293 cells was carried out as follows: HEK-293 cells were plated in 100 mm tissue culture treated dishes at a density of 3x10^6 cells per dish, and a total of five dishes were prepared. Cells were grown in a medium consisting of Dulbecco's Modified Eagle Medium (DMEM) supplemented with 10% Fetal Bovine serum, 1X L-Glutamine, and 1X Penicillin/Streptomycin, at 37°C, 10% CO2. For transfection with Maxi-K hα (pCIneo) and Maxi-K hβ1 (pIRESpuro) DNAs, 150 µl FuGENE6™ was added dropwise into 10 ml of serum free/phenol-red free DMEM and allowed to incubate at room temperature for 5 minutes. Then, the FuGENE6™ solution was added dropwise to a DNA solution containing 25 µg of each plasmid DNA, and incubated at room temperature for 30 minutes. After the incubation period, 2 ml of the FuGENE6™/DNA solution was added dropwise to each plate of cells and the cells were allowed to grow two days under the same conditions as described above. At the end of the second day, cells were put under selection media which consisted of DMEM supplemented with both 600 µg/ml G418 and 0.75 µg/ml puromycin. Cells were grown until separate colonies were formed. Five colonies were collected and transferred to a 6 well tissue culture treated dish. A total of 75 colonies were collected. Cells were allowed to grow until a confluent monolayer was obtained. Cells were then tested for the presence of maxi-K channel alpha and beta 1 subunits using an assay that monitors binding of ^125I-iberiotoxin-D19Y/Y36F to the channel. Cells expressing ^125I-iberiotoxin-D19Y/Y36F binding activity were then evaluated in a functional assay that monitors the capability of maxi-K channels to control the membrane potential of transfected HEK-293 cells using fluorescence resonance energy transfer (FRET) ABS technology with a VIPR instrument. The colony giving the largest signal to noise ratio was subjected to limiting dilution. For this, cells were resuspended at approximately 5 cells/ml, and 200 µl were plated in individual wells in a 96 well tissue culture treated plate, to add ca. one cell per well. A total of two 96 well plates were made. When a confluent monolayer was formed, the cells were transferred to 6 well tissue culture treated plates. A total of 62 wells were transferred. When a confluent monolayer was obtained, cells were tested using the FRET-functional assay. […]
The plates are loaded into a voltage/ion probe reader (VIPR) instrument, and the fluorescence emission of both CC2DMPE and DiSBAC2(3) are recorded for 10 sec. At this point, 100 µl of high-potassium solution (mM): 140 KCl, 2 CaCl2, 1 MgCl2, 20 Hepes-KOH, pH 7.4, 10 glucose are added and the fluorescence emission of both dyes recorded for an additional 10 sec. […]

[2] = tested on: endogenous potassium conductance of HEK-293 cells; assay: FRET membrane potential assay (VIPR), high-potassium addition to untransfected HEK-293 cells; conditions: Figure 1; for effect on the fluorescence signal caused by high-potassium addition: different/increasing concentrations of compound; for efficacy of Compound A or Compound B in the presence of Compound 1: selective maxi-K channel blocker Compound 1 present
Description: HEK-293 cells were plated on 96-well poly-D-lysine plates and incubated for about 16 to 24 hours at 37°C. The media was aspirated and the cells were washed once with D-PBS. Cells were incubated with 9 µM coumarin (CC2DMPE)-0.02% pluronic-127 in D-PBS for 30 minutes in the dark. Cells were washed twice with D-PBS, and incubated with 4.5 µM oxanol (DiSBAC2(3)) in the absence (Control) or presence of increasing concentrations of test compound, in the dark for 30 minutes. Plates were loaded onto a VIPR instrument and the fluorescence emission of both dyes was recorded for 10 seconds. A solution containing high-potassium was then added and the fluorescence emission of the dyes was recorded for another 10 seconds. The coumarin/oxanol ratio was calculated under both conditions. Before addition of high-potassium, this ratio was always normalized to 1.
The signal is not affected by the presence of different concentrations of the selective maxi-K channel blocker, Compound 1. […] A useful concentration range for these agents is 3-10 µM. Importantly, in the presence of the selective maxi-K channel blocker Compound 1, the efficacy of either Compound A or Compound B is unaffected.

[3] = target: T2, maxi-K channels transiently expressed in TsA-201 cells (Homo sapiens, UniProt Q12791); assay: FRET membrane potential assay (VIPR), maxi-K channels transiently expressed in TsA-201 cells; conditions: 3 µM, Figure 2
T2 construct: expressed in transfected cells; host or cells: TsA-201 cells, transient transfection
T2 sequence (Q12791 whole entry): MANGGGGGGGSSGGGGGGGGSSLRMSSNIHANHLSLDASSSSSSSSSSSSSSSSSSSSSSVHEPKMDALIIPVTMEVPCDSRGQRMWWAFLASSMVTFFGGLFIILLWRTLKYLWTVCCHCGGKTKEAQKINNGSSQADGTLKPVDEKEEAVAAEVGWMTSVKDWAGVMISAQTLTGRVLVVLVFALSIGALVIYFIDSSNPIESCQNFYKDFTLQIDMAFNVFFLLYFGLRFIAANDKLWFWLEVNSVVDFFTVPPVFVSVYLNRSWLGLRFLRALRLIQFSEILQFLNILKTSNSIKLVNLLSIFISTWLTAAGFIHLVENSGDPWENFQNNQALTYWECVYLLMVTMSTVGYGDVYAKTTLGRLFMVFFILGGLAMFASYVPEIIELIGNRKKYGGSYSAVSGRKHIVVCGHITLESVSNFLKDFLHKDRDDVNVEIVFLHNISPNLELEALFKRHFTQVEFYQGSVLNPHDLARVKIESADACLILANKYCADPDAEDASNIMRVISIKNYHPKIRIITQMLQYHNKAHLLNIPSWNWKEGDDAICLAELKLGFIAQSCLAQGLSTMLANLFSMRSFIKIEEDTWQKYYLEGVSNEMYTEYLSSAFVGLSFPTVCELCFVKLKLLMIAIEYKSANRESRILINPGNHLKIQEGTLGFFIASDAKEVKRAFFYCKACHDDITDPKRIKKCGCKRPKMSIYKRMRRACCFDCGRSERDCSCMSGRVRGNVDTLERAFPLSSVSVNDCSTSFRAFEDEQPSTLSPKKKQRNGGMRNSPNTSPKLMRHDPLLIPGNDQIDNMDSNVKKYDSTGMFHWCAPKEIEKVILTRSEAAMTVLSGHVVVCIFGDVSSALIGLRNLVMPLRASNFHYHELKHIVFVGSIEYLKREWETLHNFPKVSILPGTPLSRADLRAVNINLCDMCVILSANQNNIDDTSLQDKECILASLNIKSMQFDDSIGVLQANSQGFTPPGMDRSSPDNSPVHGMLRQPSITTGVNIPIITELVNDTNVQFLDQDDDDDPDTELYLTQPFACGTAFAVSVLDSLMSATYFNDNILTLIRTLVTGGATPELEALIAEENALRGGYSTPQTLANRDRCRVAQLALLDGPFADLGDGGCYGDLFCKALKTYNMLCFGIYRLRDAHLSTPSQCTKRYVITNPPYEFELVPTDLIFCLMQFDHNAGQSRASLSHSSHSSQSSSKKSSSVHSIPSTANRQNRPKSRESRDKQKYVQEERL
T2 sequence (Q16558 whole entry partner): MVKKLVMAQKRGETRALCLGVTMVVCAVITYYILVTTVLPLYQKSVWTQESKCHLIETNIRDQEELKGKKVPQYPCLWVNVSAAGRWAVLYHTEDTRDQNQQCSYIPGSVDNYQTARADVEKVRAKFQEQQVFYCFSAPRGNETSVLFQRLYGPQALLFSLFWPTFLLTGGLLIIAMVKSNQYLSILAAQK

T1 sequence (Q12791 whole entry): as the sequence (Q12791 whole entry) above
T1 sequence (Q16558 whole entry partner): as the sequence (Q16558 whole entry partner) above

| SMILES | inhibition of the control signal ([1]; 3 µM Compound A present in all wells, increasing concentrations of compound, Figure 4) | block of the signal generated by addition of a high-potassium solution ([1]; compound alone, no endogenous conductance blocker, Figure 3) | inhibition of the signal generated by addition of a high-potassium solution ([1]; in the presence of Compound A, Figure 3) | effect on the fluorescence signal caused by high-potassium addition [2] | effect on control signal (maxi-K channel activity) [3] | effect on the magnitude of the signal caused by addition of high-potassium solution ([1]; Compound A alone, Figure 3) | efficacy of Compound A or Compound B in the presence of Compound 1 [2] |
| --- | --- | --- | --- | --- | --- | --- | --- |
| COc1ccc2c(c1)c(CC(=O)N(C(=O)NC1CCCCC1)C1CCCCC1)c(C)n2C(=O)c1ccc(Cl)cc1 [Compound 1] | concentration-dependent inhibition of the control signal | only partially blocks the signal | complete inhibition of the signal | not affected | completely inhibits the control signal |  |  |
| CCCNC(=O)OC1CCC(CNC(=O)c2ccccc2OC)(c2ccccc2)CC1 (stereo not shown) [Compound A] |  |  |  | concentration-dependent inhibition of the fluorescence signal |  | no significant effect on the magnitude of the signal | unaffected |
| COc1ccccc1C(=O)NCC1(c2ccccc2)CCC(=O)CC1 [Compound B] |  |  |  | concentration-dependent inhibition of the fluorescence signal |  |  | unaffected |

Source: patent publication EP1368020B1, “METHOD FOR IDENTIFYING MAXI-K CHANNEL BLOCKERS” (priority 2001, dated 2002)
